The test system of series [1] is PBMC. In words: Anti-inflammatory activity in human PBMC assessed as inhibition of LPS-induced TNFalpha expression at 10 uM after 5 hrs. It is filed as functional.
Series [2] has as its system Mus musculus. In words: Anti-inflammatory activity in BALB/c mouse assessed as inhibition of LPS-induced IL-6 expression at 10 mg/kg, po pre-treated for 1 hr followed by LPS administration measured 2.5 hrs after LPS challenge by ELISA. It is filed as functional.
For series [3], the system named is PBMC. In words: Anti-inflammatory activity in human PBMC assessed as inhibition of LPS-induced IL-6 expression at 10 uM after 5 hrs. It is filed as functional.
Series [4] concerns Mus musculus. In words: Anti-inflammatory activity in BALB/c mouse assessed as inhibition of LPS-induced TNFalpha expression at 10 mg/kg, po pre-treated for 1 hr followed by LPS administration measured 2.5 hrs after LPS challenge by ELISA. It is filed as functional. (An ELISA detects its analyte on a solid surface through an enzyme-linked reagent.)
A short description of series [5]: Cytotoxicity against human FR2 cells assessed as cell viability at 10 uM after 48 hrs by MTT assay. It counts as cell-based. To be noted: read-out: Activity.

SMILES strings stand for the structures.

Results on 23 compounds are retold here after ChEMBL document CHEMBL3751761, “Analogues of boswellic acids as inhibitors of pro-inflammatory cytokines TNF-α and IL-6” (Bioorg Med Chem Lett, 2016).

A word on the inhibition: it is the relative decrease from the control value, in per cent. The inhibition in vivo is how much of the control response was suppressed. As to `C[C@H]1[C@H](C)CC[C@]2(C)CC[C@]3(C)C(=CC(=O)[C@@H]4[C@@]5(C)CC[C@H](O)[C@](C)(C(=O)O)[C@@H]5CC[C@]43C)[C@H]12`, the inhibition at 10 µM with PBMC [1] came out at 53.5%; in the series with PBMC [3] it was 49.6%. For the same compound, the inhibition in vivo at 10 mg/kg is 28.9% in the series with Mus musculus [2] and 71.3% in the series with Mus musculus [4]. In series [5], the viability at 48 h, 10 µM came out at 100%.
`CC(=O)O[C@@H]1CC[C@]2(C)[C@H]3C(=O)C=C4[C@@H]5[C@@H](C)[C@H](C)CC[C@]5(C)CC[C@@]4(C)[C@]3(C)CC[C@H]2[C@@]1(C)N`: the inhibition at 10 µM in the series with PBMC [1] was found to be 78.9%; in the series on PBMC [3], 58.4%. Further, the inhibition in vivo at 10 mg/kg with Mus musculus [2] was 39.1%; in the series on Mus musculus [4], 53.3%. Also, the viability at 48 h, 10 µM in series [5] was 97%.
Consider `CC(=O)O[C@@H]1CC[C@@]2(C)[C@@H](CC[C@]3(C)[C@@H]2C(=O)C=C2[C@@H]4[C@@H](C)[C@H](C)CC[C@]4(C)CC[C@]23C)[C@@]1(C)C(=O)O` [AKBA], for which the inhibition at 10 µM with PBMC [1] is 55%; in the series with PBMC [3], 53.9%. Further, the inhibition in vivo at 10 mg/kg in the series on Mus musculus [2] stood at 54.3%; with Mus musculus [4], 70.7%. Also, the viability at 48 h, 10 µM in series [5] worked out at 100%.
Turning to `C[C@H]1[C@H](C)CC[C@]2(C)CC[C@]3(C)C(=CC[C@@H]4[C@@]5(C)CC[C@H](O)[C@](C)(C(=O)O)[C@@H]5CC[C@]43C)[C@H]12`, the results for the inhibition at 10 µM in the series with PBMC [1] and in the series with PBMC [3] were 41.4% and 42.3%, respectively.
For `CC(=O)O[C@H]1CC[C@@]2(C)[C@@H](CC[C@]3(C)[C@@H]2C(=O)C=C2[C@@H]4[C@@H](C)[C@H](C)CC[C@]4(C)CC[C@]23C)[C@@]1(C)C(=O)O` the same measures were 39.6% and 44.7%.
Consider `CC(=O)O[C@@H]1CC[C@@]2(C)[C@@H](CC[C@]3(C)[C@@H]2CC=C2[C@@H]4[C@@H](C)[C@H](C)CC[C@]4(C)CC[C@]23C)[C@@]1(C)C(=O)O`, for which the inhibition at 10 µM with PBMC [1] amounted to 43.8%.
`CCCC(=O)O[C@H]1CC[C@@]2(C)[C@@H](CC[C@]3(C)[C@@H]2C(=O)C=C2[C@@H]4[C@@H](C)[C@H](C)CC[C@]4(C)CC[C@]23C)[C@@]1(C)C(=O)O`: the results for the inhibition at 10 µM with PBMC [1] and with PBMC [3] were 44.2% and 52.3%, respectively. For the same compound, the figures for the inhibition in vivo at 10 mg/kg in the series on Mus musculus [2] and with Mus musculus [4] were 48.5% and 37.8%, respectively. Besides, the viability at 48 h, 10 µM in series [5] was determined as 80%.
Taken in the same sequence, the figures for `C[C@H]1[C@H](C)CC[C@]2(C)CC[C@]3(C)C(=CC(=O)[C@@H]4[C@@]5(C)CC[C@@H](O)[C@](C)(C(=O)O)[C@@H]5CC[C@]43C)[C@H]12` [11-KETO BOSWELLIC ACID] were 56.3%, 59.6%, 61.6%, 58.7% and 86%.
As for `CCCC(=O)O[C@@H]1CC[C@@]2(C)[C@@H](CC[C@]3(C)[C@@H]2CC=C2[C@@H]4[C@@H](C)[C@H](C)CC[C@]4(C)CC[C@]23C)[C@@]1(C)C(=O)O`, the figures for the inhibition at 10 µM in the series with PBMC [1] and in the series with PBMC [3] were 41.4% and 34.8%, respectively.
On to `CCCCCC(=O)O[C@@H]1CC[C@@]2(C)[C@@H](CC[C@]3(C)[C@@H]2CC=C2[C@@H]4[C@@H](C)[C@H](C)CC[C@]4(C)CC[C@]23C)[C@@]1(C)C(=O)O`, for which the inhibition at 10 µM in the series on PBMC [1] is 72.3%; in the series with PBMC [3], 50.5%. Also, the inhibition in vivo at 10 mg/kg with Mus musculus [2] is 57.5%; in the series with Mus musculus [4] it was 42.5%. Besides, in series [5], the viability at 48 h, 10 µM was found to be 89%.
For `CCCCCC(=O)O[C@H]1CC[C@@]2(C)[C@@H](CC[C@]3(C)[C@@H]2C(=O)C=C2[C@@H]4[C@@H](C)[C@H](C)CC[C@]4(C)CC[C@]23C)[C@@]1(C)C(=O)O` the same measures were 44.7%, 64%, 44.1%, 30.7% and 85%.
On to `CCCCCC(=O)O[C@@H]1CC[C@@]2(C)[C@@H](CC[C@]3(C)[C@@H]2C(=O)C=C2[C@@H]4[C@@H](C)[C@H](C)CC[C@]4(C)CC[C@]23C)[C@@]1(C)C(=O)O`, for which the inhibition at 10 µM in the series on PBMC [1] was found to be 18.3%; in the series on PBMC [3] it was 13.8%.
For the compound `CCC(=O)O[C@@H]1CC[C@@]2(C)[C@@H](CC[C@]3(C)[C@@H]2C(=O)C=C2[C@@H]4[C@@H](C)[C@H](C)CC[C@]4(C)CC[C@]23C)[C@@]1(C)C(=O)O`, the inhibition at 10 µM in the series on PBMC [1] turned out to be 38.9%; in the series with PBMC [3] it was 36.6%.
Turning to `CCCCCC(=O)O[C@H]1CC[C@@]2(C)[C@@H](CC[C@]3(C)[C@@H]2CC=C2[C@@H]4[C@@H](C)[C@H](C)CC[C@]4(C)CC[C@]23C)[C@@]1(C)C(=O)O`, the values for the inhibition at 10 µM with PBMC [1] and in the series with PBMC [3] were 42.5% and 53.4%, respectively. The inhibition in vivo at 10 mg/kg in the series on Mus musculus [2] came to 41.6%; in the series on Mus musculus [4], 59.3%. Further, the viability at 48 h, 10 µM in series [5] was 97%.
Taken in the same sequence, the figures for `C[C@H]1[C@H](C)CC[C@]2(C)CC[C@]3(C)C(=CC[C@@H]4[C@@]5(C)CC[C@@H](O)[C@](C)(C(=O)O)[C@@H]5CC[C@]43C)[C@H]12` [BOSWELLIC ACID] were 44.5%, 48.6%, 53%, 50.8% and 73%.
`COc1ccc(C2CNC(=O)C2)cc1OC1CCCC1` (centres undefined) [ROLIPRAM]: the values for the inhibition at 10 µM in the series on PBMC [1] and in the series on PBMC [3] were 34.6% and 26.2%, respectively. Moreover, the inhibition in vivo at 10 mg/kg in the series on Mus musculus [2] turned out to be 36.9%; with Mus musculus [4], 48.1%.
Take `CC(=O)O[C@@H]1CC[C@@]2(C)[C@@H](CC[C@]3(C)[C@@H]2C(=O)C=C2[C@@H]4[C@@H](C)[C@H](C)CC[C@]4(C)CC[C@]23C)[C@@]1(C)N=C=O`: the results for the inhibition at 10 µM in the series on PBMC [1] and in the series on PBMC [3] were 40.6% and 69.8%, respectively. The inhibition in vivo at 10 mg/kg in the series with Mus musculus [2] was 40.2%; in the series with Mus musculus [4], 26.4%. In addition, the viability at 48 h, 10 µM in series [5] turned out to be 91%.
For `CCCC(=O)O[C@H]1CC[C@@]2(C)[C@@H](CC[C@]3(C)[C@@H]2CC=C2[C@@H]4[C@@H](C)[C@H](C)CC[C@]4(C)CC[C@]23C)[C@@]1(C)C(=O)O` the same measures were 68.9%, 39.5%, 51.6%, 58.7% and 83%.
Consider `CC(=O)O[C@H]1CC[C@@]2(C)[C@@H](CC[C@]3(C)[C@@H]2CC=C2[C@@H]4[C@@H](C)[C@H](C)CC[C@]4(C)CC[C@]23C)[C@@]1(C)C(=O)O`, for which the inhibition at 10 µM with PBMC [1] came to 57.9%; in the series with PBMC [3], 51.1%. For the same compound, the inhibition in vivo at 10 mg/kg in the series with Mus musculus [2] was determined as 19.5%. Moreover, the viability at 48 h, 10 µM in series [5] was determined as 99%.
Take `CC(=O)O[C@@H]1CC[C@@]2(C)[C@@H](CC[C@]3(C)[C@@H]2CC=C2[C@@H]4[C@@H](C)[C@H](C)CC[C@]4(C)CC[C@]23C)[C@@]1(C)N=C=O`: the inhibition at 10 µM in the series with PBMC [1] was 40.6%.
Turning to `CC(=O)O[C@@H]1CC[C@]2(C)[C@H]3CC=C4[C@@H]5[C@@H](C)[C@H](C)CC[C@]5(C)CC[C@@]4(C)[C@]3(C)CC[C@H]2[C@@]1(C)N`, the inhibition at 10 µM in the series on PBMC [1] turned out to be 68.3%; with PBMC [3], 63.3%. In addition, the inhibition in vivo at 10 mg/kg in the series on Mus musculus [2] is 41.4%; with Mus musculus [4], 39.5%. For the same compound, the viability at 48 h, 10 µM in series [5] amounted to 100%.
`CCCC(=O)O[C@@H]1CC[C@@]2(C)[C@@H](CC[C@]3(C)[C@@H]2C(=O)C=C2[C@@H]4[C@@H](C)[C@H](C)CC[C@]4(C)CC[C@]23C)[C@@]1(C)C(=O)O`: the inhibition at 10 µM in the series with PBMC [1] was 34.1%; in the series on PBMC [3], 22.5%.
For the compound `CCC(=O)O[C@@H]1CC[C@@]2(C)[C@@H](CC[C@]3(C)[C@@H]2CC=C2[C@@H]4[C@@H](C)[C@H](C)CC[C@]4(C)CC[C@]23C)[C@@]1(C)C(=O)O`, the inhibition at 10 µM turned out to be 40% in the series on PBMC [1] and 43.5% in the series with PBMC [3].
